This note sets out measurements from US20140155384A1, “COMPOUNDS AND METHODS OF TREATING DIABETES” (Medivation Technologies, Inc., priority 2011, published 2014).

The target of assay [1] is T1, human recombinant adrenergic α1D receptor (Homo sapiens, UniProt P25100).
T1 construct: expressed in transfected cells; host or cells: HEK-293
T1 sequence (P25100 1-572): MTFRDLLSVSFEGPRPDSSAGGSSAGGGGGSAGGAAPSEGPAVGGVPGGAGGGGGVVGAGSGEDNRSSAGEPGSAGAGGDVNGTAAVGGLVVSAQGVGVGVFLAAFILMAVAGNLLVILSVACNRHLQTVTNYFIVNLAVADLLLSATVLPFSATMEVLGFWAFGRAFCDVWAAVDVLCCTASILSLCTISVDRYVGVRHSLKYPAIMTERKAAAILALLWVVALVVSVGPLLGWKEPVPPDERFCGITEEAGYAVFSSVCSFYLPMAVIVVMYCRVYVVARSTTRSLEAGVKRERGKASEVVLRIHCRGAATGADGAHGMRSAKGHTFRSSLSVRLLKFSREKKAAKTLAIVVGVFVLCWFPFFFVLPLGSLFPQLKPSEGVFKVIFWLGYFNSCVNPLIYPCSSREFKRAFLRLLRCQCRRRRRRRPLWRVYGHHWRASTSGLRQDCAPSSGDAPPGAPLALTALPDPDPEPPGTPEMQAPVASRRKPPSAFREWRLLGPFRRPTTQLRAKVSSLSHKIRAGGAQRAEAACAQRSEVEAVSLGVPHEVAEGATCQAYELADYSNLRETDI
In words: Radioligand binding, adrenergic α1D receptor ([3H]Prazosin). The following applies: 0.1 μM compound; HEK-293 cells; 0.6 nM [3H]Prazosin; read-out: Percentage inhibition of ligand binding, Adrenergic α1D. The protocol:
Compounds were incubated with 0.6 nM [3H]Prazosin for 60 min at 25° C. Non-specific binding was estimated in the presence of 10 μM phentolamine. Receptor proteins were filtered and washed, the filters were then counted to determine [3H]Prazosin specifically bound. Compounds were screened at 1 μM or lower, using 1% DMSO as vehicle. Biochemical assay results are presented as the percent inhibition of specific binding in Table 2.

The target in assay [2] is T2, human recombinant adrenergic α2B receptor (Homo sapiens, UniProt P18089).
T2 construct: expressed in transfected cells; host or cells: CHO-K1
T2 sequence (P18089 1-450): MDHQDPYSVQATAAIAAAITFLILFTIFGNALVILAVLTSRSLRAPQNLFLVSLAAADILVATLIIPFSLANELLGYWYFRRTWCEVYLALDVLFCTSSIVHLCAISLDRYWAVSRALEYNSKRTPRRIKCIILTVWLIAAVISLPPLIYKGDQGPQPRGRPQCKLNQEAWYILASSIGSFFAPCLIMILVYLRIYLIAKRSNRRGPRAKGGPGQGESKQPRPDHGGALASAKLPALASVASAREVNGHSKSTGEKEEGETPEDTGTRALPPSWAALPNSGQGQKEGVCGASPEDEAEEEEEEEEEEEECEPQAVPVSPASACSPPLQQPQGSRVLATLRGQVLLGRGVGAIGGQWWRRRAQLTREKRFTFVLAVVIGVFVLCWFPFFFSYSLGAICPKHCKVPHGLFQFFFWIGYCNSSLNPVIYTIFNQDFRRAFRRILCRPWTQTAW
Kind of assay: Radioligand binding, adrenergic α2B receptor ([3H]Rauwolscine). The following applies: 0.1 μM compound, CHO-K1 cells, read-out: Percentage inhibition of ligand binding, Adrenergic α2B. The procedure, abridged: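 Percent inhibition of specific [3H]Rauwolscine (2.5 nM) binding, compounds at ≤1 μM, 1% DMSO vehicle, 10 μM prazosin defining nonspecific. Receptor: human α2B expressed in CHO-K1 cells, 60 min incubation at 25 °C in Tris-HCl pH 7.4 buffer (MgCl2, EDTA, BSA); filtered, washed, counted.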

Assay [3] deals with T3, rat adrenergic α1B receptor (Rattus norvegicus, UniProt P15823).
T3 construct: rat adrenergic α1B receptor obtained from Wistar Rat liver; from tissue; host or cells: Wistar rat liver
T3 sequence (P15823 1-515): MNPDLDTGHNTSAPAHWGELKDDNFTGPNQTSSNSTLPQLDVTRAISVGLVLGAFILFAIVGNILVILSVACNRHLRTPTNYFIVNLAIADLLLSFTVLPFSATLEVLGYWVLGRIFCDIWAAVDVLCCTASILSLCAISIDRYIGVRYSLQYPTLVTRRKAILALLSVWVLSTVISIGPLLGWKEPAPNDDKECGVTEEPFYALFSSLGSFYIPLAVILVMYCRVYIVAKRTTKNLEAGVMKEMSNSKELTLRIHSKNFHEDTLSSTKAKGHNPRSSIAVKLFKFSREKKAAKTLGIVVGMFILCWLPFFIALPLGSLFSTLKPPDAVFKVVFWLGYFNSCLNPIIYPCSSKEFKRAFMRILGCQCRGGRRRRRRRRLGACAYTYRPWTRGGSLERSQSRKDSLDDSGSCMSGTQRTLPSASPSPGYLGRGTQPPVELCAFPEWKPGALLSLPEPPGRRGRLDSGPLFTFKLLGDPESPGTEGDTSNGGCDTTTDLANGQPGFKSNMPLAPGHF
Kind of assay: Radioligand binding, adrenergic α1B receptor ([3H]Prazosin). Conditions: 0.1 μM compound, Wistar rat liver, read-out: Percentage inhibition of ligand binding, Adrenergic α1B. The procedure, abridged:
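Wistar rat liver α1B receptor preparation incubated with 0.25 nM [3H]prazosin and compound for 60 min at 25° C in 50 mM Tris-HCl pH 7.4, 0.5 mM EDTA; nonspecific binding defined with 10 μM phentolamine.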

The target of assay [4] is T4, human recombinant adrenergic α2A receptor (Homo sapiens, UniProt P08913).
T4 construct: expressed in transfected cells; host or cells: insect Sf9 cells
T4 sequence (P08913 1-465): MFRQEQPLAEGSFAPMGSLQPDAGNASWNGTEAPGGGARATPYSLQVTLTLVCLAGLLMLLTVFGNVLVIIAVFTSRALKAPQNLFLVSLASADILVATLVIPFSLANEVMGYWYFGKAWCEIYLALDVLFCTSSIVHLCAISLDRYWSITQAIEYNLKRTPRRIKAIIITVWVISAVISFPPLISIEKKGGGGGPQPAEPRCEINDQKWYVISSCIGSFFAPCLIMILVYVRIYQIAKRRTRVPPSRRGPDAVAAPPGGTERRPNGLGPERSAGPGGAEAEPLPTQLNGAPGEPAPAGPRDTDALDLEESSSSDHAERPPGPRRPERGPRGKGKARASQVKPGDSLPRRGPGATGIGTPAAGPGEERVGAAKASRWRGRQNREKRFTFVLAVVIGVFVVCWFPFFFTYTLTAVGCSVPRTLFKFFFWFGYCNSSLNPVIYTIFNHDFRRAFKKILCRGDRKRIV
In words: Radioligand binding, adrenergic α2A receptor ([3H]MK-912). The following applies: 0.1 μM compound; Sf9 cells; 1 nM [3H]MK-912; read-out: Percentage inhibition of ligand binding, Adrenergic α2A. The procedure, abridged:
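Percent inhibition of specific [3H]MK-912 (1 nM) binding measured by filtration counting, compounds tested at ≤1 μM in 1% DMSO. Receptor: human α2A from Sf9 cells; incubation 60 min, 25 °C, pH 7.4; 10 μM WB-4101 defined nonspecific binding.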

The term inhibition denotes the change of the read-out against control, counted positive when it falls.

`Cc1ccc2c(c1)c1c(n2-c2ccccc2-c2cccc3[nH]ncc23)CCN(C)C1` [Compound No. 105, 5-(2-(1H-indazol-4-yl)phenyl)-2,8-dimethyl-2,3,4,5-tetrahydro-1H-pyrido[4,3-b]indole]: the inhibition at 0.1 µM in assay [1] was found to be 65%; in assay [2] it was 84%; in assay [3], 71%; in assay [4] it was 79%.
On to `Cc1ccc2c(c1)c1c(n2-c2cscc2-c2cnn(C)c2)CCN(C)C1` [Compound 30], for which the inhibition at 0.1 µM in assay [1] was found to be 17%; in assay [2], 86%; in assay [3] it was 32%; in assay [4], 42%.
Consider `Cc1ccc2c(c1)c1c(n2-c2ccc(-c3cccnc3)cn2)CCN(C)C1` [Compound No. 133, 5-(3,3′-bipyridin-6-yl)-2,8-dimethyl-2,3,4,5-tetrahydro-1H-pyrido[4,3-b]indole], for which the inhibition at 0.1 µM came to 53% in assay [1], 77% in assay [2], 63% in assay [3] and 31% in assay [4].
Regarding `Cc1ccc2c(c1)c1c(n2-c2ccsc2)CCN(C)C1` [Compound 14, 2,8-dimethyl-5-thiophen-3-yl-2,3,4,5-tetrahydro-1H-pyrido[4,3-b]indole], the inhibition at 0.1 µM in assay [1] was determined as 20%; in assay [2], 51%; in assay [3], 38%; in assay [4], 23%.
In the case of `Cc1ccc2c(c1)c1c(n2-c2cccc(-c3cc4ccccc4s3)c2)CCN(C)C1` [Compound 51, 5-(3-(benzo[b]thiophen-2-yl)phenyl)-2,8-dimethyl-2,3,4,5-tetrahydro-1H-pyrido[4,3-b]indole], the inhibition at 0.1 µM in assay [1] worked out at 12%; in assay [2], 7%; in assay [3], 10%; in assay [4] it was 27%.
For the compound `Cc1ccc2c(c1)c1c(n2-c2ccc(-c3ccncc3)cn2)CCN(C)C1` [Compound No. 132, 5-(3,4′-bipyridin-6-yl)-2,8-dimethyl-2,3,4,5-tetrahydro-1H-pyrido[4,3-b]indole], the inhibition at 0.1 µM in assay [1] worked out at 28%; in assay [2] it was 69%; in assay [3], 33%; in assay [4], 17%.
The like results for `Cc1ccc2c(c1)c1c(n2-c2cccc(-c3ccc(C)nc3)c2)CCN(C)C1` [Compound 60, 2,8-dimethyl-5-(3-(6-methylpyridin-3-yl)phenyl)-2,3,4,5-tetrahydro-1H-pyrido[4,3-b]indole] were, in that order, 9%, 14%, 4% and 62%.
The like results for `Cc1ccc2c(c1)c1c(n2-c2cccc(-c3sccc3C)c2)CCN(C)C1` [Compound 43, 2,8-dimethyl-5-(3-(3-methylthiophen-2-yl)phenyl)-2,3,4,5-tetrahydro-1H-pyrido[4,3-b]indole] were, in that order, 3%, 6%, 9% and 31%.
`Cc1ccc2c(c1)c1c(n2-c2cccc(-c3cn[nH]c3)c2)CCN(C)C1` [Compound No. 70, 5-(3-(1H-pyrazol-4-yl)phenyl)-2,8-dimethyl-2,3,4,5-tetrahydro-1H-pyrido[4,3-b]indole]: the inhibition at 0.1 µM in assay [1] came out at 9%; in assay [2], 19%; in assay [3], 18%; in assay [4] it was 34%.
As for `Cc1ccc2c(c1)c1c(n2-c2ccc3cnccc3c2)CCN(C)C1` [Compound 38], the inhibition at 0.1 µM in assay [1] turned out to be 32%; in assay [2], 57%; in assay [3], 31%; in assay [4], 32%.
Take `Cc1ccc2c(c1)c1c(n2-c2ccc(-c3c(C)noc3C)cn2)CCN(C)C1` [Compound No. 137, 4-(6-(2,8-dimethyl-3,4-dihydro-1H-pyrido[4,3-b]indol-5(2H)-yl)pyridin-3-yl)-3,5-dimethylisoxazole]: the inhibition at 0.1 µM came to 74% in assay [1], 92% in assay [2], 72% in assay [3] and 57% in assay [4].
The like results for `CNC(=O)c1ccc(-c2cscc2-n2c3c(c4cc(C)ccc42)CN(C)CC3)cc1` [Compound No. 155] were, in that order, 63%, 74%, 43% and 9%.
Consider `Cc1ccc2c(c1)c1c(n2-c2cccc(-c3cnn(C)c3)c2)CCN(C)C1` [Compound 46, 2,8-dimethyl-5-(3-(1-methyl-1H-pyrazol-4-yl)phenyl)-2,3,4,5-tetrahydro-1H-pyrido[4,3-b]indole], for which the inhibition at 0.1 µM in assay [1] is 8%; in assay [2] it was 21%; in assay [3], -7%; in assay [4], 48%.
Consider `Cc1ccc2c(c1)c1c(n2-c2cscc2-c2c(C)noc2C)CCN(C)C1` [Compound No. 62], for which the inhibition at 0.1 µM in assay [1] worked out at 18%; in assay [2], 19%; in assay [3], 32%; in assay [4], 67%.
Consider `CNC(=O)c1cccc(-c2cscc2-n2c3c(c4cc(C)ccc42)CN(C)CC3)c1` [Compound No. 154], for which the inhibition at 0.1 µM in assay [1] is 70%; in assay [2], 42%; in assay [3], 46%; in assay [4] it was 20%.
